The format of series [1] is in vitro ADME, rat. As for the experimental part: The experiment was performed in an in vitro perfusion device.
Patches (2 mm×2 mm) were put into intestine lumen (3 cm in length). One end of the lumen was connected to an infusion inlet, while the other end was connected to a receiving tube. Phosphate buffer solution (PBS) was infused in a constant rate (0.05 ml/min) into the lumen. The entire device was placed on a magnetic stirrer panel, and samples were taken from PBS outside the lumen at predetermined time interval. […] This perfusion system mimics in-vivo intestine fluid movement.
Bioavailability of drug transport from these patches was calculated. Bioavailability refers to the ratio of the amount of drug transported across the intestine to the total amount of drug released at the site of absorption.

A short description of series [2]: Leakage of drug from patch edges. The format is physicochemical. The settings on record: within 10 minutes. From the text:
In a regular patch without the microspheres structure, when the patch is cut into smaller pieces, drug in the reservoir layer easily leaks from along the breaking edges. In the presence of the microspheres structure, the breakpoint usually occurs between mircrospheres, which make it difficult for the drug to penetrate through the backing layer. So, with the help of microspheres structure, the leakage of drug from the patch can be substantially controlled. Though drug could leak from those microspheres along the edge, where their coating would possibly be broken, for microspheres located away from the edge no leakage can be seen. In a quantitative measurement, within 10 minutes, 60% of sulforhodamine B was lost from the edges in patch.without microspheres structure, while only 10% leaked in the presence of this microspheres structure.

Series [3] in a line: Unidirectional release of drug from compressed patches in diffusion cell (PBS). The format is physicochemical. The procedure:
(2) Unidirectional Release of Drug from Compressed Patches: Release of a model drug (Sulforhodamine B) from patches was measured in vitro into phosphate buffered saline (PBS, pH 7.4, 0.01 M). To distinguish drug release from the mucoadhesive side and the backing side of the patch, the patches were placed in a custom-designed diffusion cell. The cell comprised two chambers placed side-by-side with an opening provided between the chambers of about 3.14 mm^2. A patch (4 mm in diameter) was placed between the two chambers and each chamber was filled with 6 ml PBS. Vacuum grease was used to seal the joint to avoid leakage of PBS. Amount of sulforhodamine B released from either side of the patch into the solution was quantified at 565 nm using a spectrophotometer (UV-1601, Shimadzu Corporation).
To assess whether unidirectionality of release is also observed when the patch is placed on the intestine, the following experiments were performed. A section of pig intestine was placed on a diffusion cell such that the mucosal side faced the upper (donor) chamber. The donor chamber was filled with 2 ml PBS. Under these conditions, the thickness of the PBS layer on the intestine was about […]. A sulforhodamine-containing patch (4 mm in diameter) was prepared using methods described above was gently placed on the intestine. A stirring bar was placed on a mesh, which was placed about 1 cm above the patch. The receiver chamber was filled with 12 ml PBS. A stirring bar was placed in the receiver chamber. The cell was placed on a magnetic stirrer and stirred at 400 rpm for 120 minutes. Amount of sulforhodamine B released into donor and receiver chambers was measured using the same spectrophotometer described above. Percentages of sulforhodamine B delivered into the receiver and donor chambers were calculated (Figure 12). By measuring the total amount of sulforhodamine B released from the patch, the percent of sulforhodamine B delivered into the intestine was also calculated.

The subject of another series is non-diabetic rats. Kind of series: Intestinal delivery of insulin patches in non-diabetic rats (blood glucose). The format is in vivo, Sprague Dawley (SD) rats. The settings on record: 10 IU/kg in the intestine. As for the experimental part:
Intestinal delivery of insulin patches in non-diabetic rats: All animal experiments were4conducted under aseptic conditions using institutionally approved protocols. Male Sprague Dawley (SD) rats, weighing 350-450 g fasted for 16 hours were anesthetized using gas anesthesia (1.25-4% isofluorane in oxygen). Rat intestine was exposed through a midline abdominal incision (2.0 cm). A small longitudinal incision (5 mm) was made about 5 cm from the proximal end of the small intestine. Patches (3-6 pieces, 2 mm in diameter) containing insulin (0.4-1.2 IU/patch, totally 5 IU/kg or 10 Iu/kg per rat) were randomly inserted through the opening into the lumen. The incisions were then sealed by surgical tissue (NEXABAND®, Veterinary Products Laboratories, Phoenix, Ariz.). […] Blood glucose level was measured using a glucometer (Excite® XL, Bayer Corporation, Elkhart, Ind.). […] The areas above the glucose curve (AAC) were calculated by the trapezoidal method (Carino G P, Jacob J S, Mathiowitz E. 2000. Nanosphere based oral insulin delivery. J Controlled Release 65:261-269). The apparent relative pharmacological bioavailability of insulin from non-diabetic rats was calculated by comparing the AAC following intestinal administration under different doses with that following subcutaneous administration.

As to `CCN(CC)c1ccc2c(-c3ccc(S(=O)(=O)O)cc3S(=O)(=O)[O-])c3ccc(=[N+](CC)CC)cc-3oc2c1` [sulforhodamine B], in series [1], the “fraction transported across rat intestine from patches compared to solution form” value is listed as “higher fraction”. Further, the “sulforhodamine B leaked from the edges” value in series [2] (patch in the presence of microspheres structure) is on record as 10%. Moreover, in series [2] (patch without microspheres structure), the “sulforhodamine B lost from the edges” value came to 60%. For the same compound, in series [3], the “difference in release profile when different compression pressures were used during patch preparation” value is “no significant difference”. Also, in series [3] (120 minutes, PBS pH 7.4), the “drug released from the backing side of the patch” value was “less than 0.3%” and the “drug released from the mucoadhesive side of the patch” value is listed as “about 10%”. For the same compound, in series [3] (compressed patch), the “share of released drug that was released from the mucoadhesive side” value is on record as “more than 97%”.
As to “insulin solution: bovine insulin solution (pH 7), negative control administered in the intestine at 10 IU/kg”, in the series on non-diabetic rats, the “hypoglycemia after administration in the intestine” value is “did not produce detectable hypoglycemia”.

The values above are taken from patent US20030017195A1, “Method for oral drug delivery” (priority 2001, published 2003).
